Data: EP4610271B1, “SELF-ASSEMBLING POLYPEPTIDE AND USE THEREOF” (Success Bio-Tech Co., Ltd., priority 2023, dated 2026)

Columns and labels:
[1] = Neutralisation of peptide solution by mixing with DMEM medium, pH measured; type: physicochemical; conditions: for neutralization of acidity by mixing with DMEM medium: 2.5% w/v peptide solution
Procedure: As mentioned above, peptide solutions with relatively high concentrations (over 2% w/v) cannot be pre-adjusted to neutral pH before mixing with the cell suspension, and the acidity may be harmful to the cells. […] Therefore, despite the acidic nature of the 2.5% concentration solution, PRRVDP13 may still be used as a cell culture scaffold. The experimental methods are as follows. In a centrifuge tube, 1.5 mL of a 2.5% w/v self-assembling peptide solution was mixed with 1.5 mL of DMEM medium, and after gelation, additional medium was added to make a total volume of […], with a final peptide-to-medium ratio of 1:3. Alternatively, 1.5 mL of a 2.5% self-assembling peptide solution was mixed with 1.5 mL of DMEM medium to achieve a peptide-to-DMEM medium ratio of 1:1. The pH value of each group was then measured.

[2] = State of peptide solution (solution or gel) on pH adjustment with NaHCO3; type: physicochemical; conditions: for State of Peptide Under Different pH Conditions: gel: pH at which the peptide is a gel; for State of Peptide Under Different pH Conditions: solution: pH at which the peptide is a solution; for pH needed to stay in solution: typical value, concentration not stated (background, inventor's study)
Procedure: (§1) Unless otherwise specified, the solutions in this example refer to aqueous solutions prepared using purified water or sterile water as the solvent. Based on the AC-PRVDVRVDP-NH2 provided previously, the peptides AC-KLNLKLNLNL-NH2, AC-PRVDVRVKVRVDP-NH2, and AC-RADMSRADMS-NH2 were screened. The above-mentioned peptides were formulated into a 1 mL 2.5% w/v solution, to which 100 µL of 10-fold concentration PBS buffer was added and thoroughly mixed to achieve a final solution of approximately 1-fold PBS. […] Based on this, a similar sequence with liquid-solid phase transition capability, AC-PRVDVRVRVRVDP-NH2 (PRRVDP13), was further designed. At a concentration of 1% w/v, the pH of the two peptide solutions could be pre-adjusted to a certain level using a dropwise addition of 1% w/v NaHCO3 and shaking, without the peptide solution turning into a gel for several hours. However, at a concentration of 2% w/v, when the pH increased to around 3 using a dropwise addition of 1% w/v NaHCO3 and shaking, the peptide solution quickly turned into a gel. The classical sequence RADA16 and the original sequence PRVDP9 needed to be maintained under acidic conditions even at a lower concentration of 1% w/v to keep them in solution state. Otherwise, the solution would turn into a gel, and the color would turn white as the pH increased.

[3] = Screening of dissolution and gel formation on mixing with PBS or DMEM; type: physicochemical; conditions: 2.5% w/v solution mixed with 10-fold PBS (final about 1-fold) or equal volume of DMEM
Procedure: as §1

[4] = Rheometer measurement of gel storage modulus G' and loss modulus G"; type: physicochemical; conditions: 2.5% w/v gel triggered by PBS, compared to RADA16 and PRVDP9, FIGs. 7A-7C
Procedure: (§2) The experimental methods are as follows. Peptide was prepared as a 1 mL solution with a concentration of 2.5% w/v. 100 µL of a 10-fold concentration PBS buffer was added and thoroughly mixed to make the final solution as approximately 1-fold PBS to trigger gelation. The gel strength, which is related to hemostatic ability, is usually represented by the storage modulus G'. […]. The experimental methods are as follows. 3 mL of a 2.5% w/v solution of each peptide was prepared using water for injection and then 600 µL of a 5-fold concentration PBS buffer was added in to trigger gel formation. A suitable amount of gel was placed on the rheometer testing stage, with the setting of the stress of the rheometer at 1 Pa, and the scanning frequency range from 0.1 to 10 Hz to measure the storage modulus G' and loss modulus G" of the gel. To measure the viscosity of the peptide solutions, each peptide was prepared into a 2.5% w/v solution using water for injection, and a creep scan was performed using a rheometer at shear rates ranging from 0.001S^-1 to 1000S^-1 to obtain viscosity data for each peptide solution, as shown in FIGs. 7D-7F.

[5] = tested on: L929 cells; test: 3D cell culture in peptide gel, microscopy and Calcein-AM/PI staining; type: cell-based; conditions: L929 cell suspension mixed directly with peptide solution, about 48 hours, FIG. 6
Procedure: One potential application of ISAPs is to use them as scaffolds for supporting 3D cell culture. To validate their suitability as a 3D cell culture scaffold, L929 cells (purchased from the Kunming Cell Bank of the Chinese Academy of Sciences) that had been cultured for 48-72 hours and were in a vigorous growth phase were digested and then mixed with serum-containing DMEM medium for cell counting. The cell suspension was prepared at a concentration of 1×10^5 cells/mL with serum-containing DMEM medium. The cell suspension was mixed with the peptide in a specific ratio (60 µL:60 µL) and added to a 96-well culture plate. After gelation, 120 µL of serum-containing DMEM medium was added for cell culture. In this example, the ISAP solution was mixed with the cell suspension or cell culture medium to study their biocompatibility.
To test the biocompatibility of ISAPs, 60 µL of a 2.5% w/v peptide solution was mixed with an equal volume of DMEM medium in a cell culture plate to form a gel. Then, 120 µL of the aforementioned 1×10^5 cells/mL L929 cell suspension was loaded onto the pre-formed gel. 4 and 5. […] After approximately 48 hours of incubation in a cell incubator at an atmosphere of 5% CO2, cells were observed directly using a microscope or observed using a fluorescence microscope following staining with Calcein-AM and PI (Beyotime, C2015S) according to the manufacturer's instructions.

[6] = Liquid-to-solid phase transition triggered by PBS; type: physicochemical; conditions: 2.5% w/v solution, about 1-fold PBS, FIG. 8
Procedure: as §2

[7] = tested on: L929 cells; test: Cell proliferation on pre-formed peptide gel (CCK-8 assay); type: cell-based; conditions: gel of 2.5% w/v peptide solution and equal volume of DMEM, about 48 hours, CCK-8, FIGs. 4 and 5
Procedure: To test the biocompatibility of ISAPs, 60 µL of a 2.5% w/v peptide solution was mixed with an equal volume of DMEM medium in a cell culture plate to form a gel. Then, 120 µL of the aforementioned 1×10^5 cells/mL L929 cell suspension was loaded onto the pre-formed gel. […]. […] The cell proliferation assay was performed after culturing the cells in a cell incubator at an atmosphere of 5% CO2 for approximately 48 hours using a CCK-8 assay kit (Beyotime, C0038). For the PRRVDP13 peptide, the cell suspension was directly mixed with the peptide solution, and after the liquid-to-solid phase transition, cells were evenly distributed within the gel. The methods are as follows. 60 µL of the aforementioned L929 cell suspension of 1×10^5 cells/mL and 60 µL of PRRVDP13 peptide were added to a 96-well culture plate. After gelation, 120 µL of culture medium was added for cell culture. After approximately 48 hours of incubation in a cell incubator at an atmosphere of 5% CO2, cells were observed directly using a microscope or observed using a fluorescence microscope following staining with Calcein-AM and PI (Beyotime, C2015S) according to the manufacturer's instructions.

[8] = tested on: New Zealand rabbits; test: Liver wound hemostasis model; type: in vivo
Excerpt: The animal (New Zealand rabbits) was anesthetized by 2% sodium pentobarbital via ear vein injection. The animal was then fixed in a supine position on the operating table. The abdominal fur was shaved, and the area was sterilized. A standard midline incision was made, and the left lobe of liver was exposed by dissecting the liver. A sterile gauze was placed beneath the liver. A 1.0 cm long and 0.3 cm deep wound was created on the liver lobe, and the wound was wiped with gauze. The test sample (approximately 1 mL) was injected deeply onto the wound until the entire wound area was covered. The hemostatic effect was observed and the hemostasis time was recorded.

With CC(=O)N[C@@H](CCCNC(=N)N)C(=O)N[C@@H](C)C(=O)N[C@@H](CC(=O)O)C(=O)N[C@@H](C)C(=O)N[C@@H](CCCNC(=N)N)C(=O)N[C@@H](C)C(=O)N[C@@H](CC(=O)O)C(=O)N[C@@H](C)C(=O)N[C@@H](CCCNC(=N)N)C(=O)N[C@@H](C)C(=O)N[C@@H](CC(=O)O)C(=O)N[C@@H](C)C(=O)N[C@@H](CCCNC(=N)N)C(=O)N[C@@H](C)C(=O)N[C@@H](CC(=O)O)C(=O)N[C@@H](C)C(N)=O [RADA16, AC-RADARADARADARADA-NH2, reference compound] the “neutralization of acidity by mixing with DMEM medium” value (shortened to “neutralization of acidity by mixing”) [1] was “relatively more difficult to neutralize”, the “State of Peptide Under Different pH Conditions: gel” value ([2]; concentration 1% w/v) was “pH ≥ 3.40, gel” and the “State of Peptide Under Different pH Conditions: solution” value ([2]; concentration 1% w/v) was “pH < 3.40, solution”. For the same compound, the “pH needed to stay in solution” value [2] was < 3.

With “Ac-PRVDVRVDP-NH2 [PRVDP9, AC-PRVDVRVDP-NH2, reference compound]” the “neutralization of acidity by mixing” value [1] was “relatively more difficult to neutralize”, the “State of Peptide Under Different pH Conditions: gel” value ([2]; concentration 1% w/v) was “pH ≥ 3.50, gel” and the “State of Peptide Under Different pH Conditions: solution” value ([2]; concentration 1% w/v) was “pH < 3.50, solution”. For the same compound, the “pH needed to stay in solution” value [2] was < 3.

With “Ac-PRVDVRVKVRVDP-NH2 [AC-PRVDVRVKVRVDP-NH2]” the “State of Peptide Under Different pH Conditions: gel” value ([2]; concentration 1% w/v) was “pH ≥ 4.05, gel”, the “State of Peptide Under Different pH Conditions: gel” value ([2]; concentration 2% w/v) was “pH ≥ 3.20, gel” and the “State of Peptide Under Different pH Conditions: solution” value ([2]; concentration 1% w/v) was “pH < 4.05, solution”. The “State of Peptide Under Different pH Conditions: solution” value ([2]; concentration 2% w/v) was “pH < 3.20, solution” and the “dissolution and gel formation” value [3] was “dissolved easily and formed a good gel”.

For “Ac-PRVDVRVRVRVDP-NH2 [PRRVDP13, AC-PRVDVRVRVRVDP-NH2]”, the “mechanical properties (storage modulus G')” value [4] was “better mechanical properties”, the “neutralization of acidity by mixing” value [1] was “easily neutralized” and the “pH of the peptide-DMEM mixture” value ([1]; 2.5% w/v, same volume ratio (1:1 or 1:3), compared with PRVDP9 and RADA16, FIG. 3) was “significantly higher”. For the same compound, the “State of Peptide Under Different pH Conditions: gel” value ([2]; concentration 1% w/v) was “pH ≥ 6.29, gel”, the “State of Peptide Under Different pH Conditions: gel” value ([2]; concentration 2% w/v) was “pH ≥ 3.25, gel” and the “State of Peptide Under Different pH Conditions: solution” value ([2]; concentration 1% w/v) was “pH < 6.29, solution”. For the same compound, the “State of Peptide Under Different pH Conditions: solution” value ([2]; concentration 2% w/v) was “pH < 3.25, solution”, the “cell viability within the gel” value [5] was “majority of cells were viable” and the “liquid-to-solid phase transition ability” value [6] was “good liquid-to-solid phase transition ability”. The “cell proliferation on the peptide gel” value [7] was “good proliferation”, the “time to complete hemostasis” value ([8]; 1.25% w/v peptide solution with 1 mg/mL NaHCO3, about 1 mL on rabbit liver wound) was ≤ 50 s and the “time to complete hemostasis” value ([8]; 2.5% w/v peptide solution, about 1 mL on rabbit liver wound) was ≤ 50 s. The “bleeding after rinsing off the hydrogel” value ([8]; surface hydrogel rinsed off with normal saline after 2 minutes of hemostasis) was “no new bleeding appeared”.
